From article PMC8203827, “The Stand-Alone PilZ-Domain Protein MotL Specifically Regulates the Activity of the Secondary Lateral Flagellar System in Shewanella putrefaciens” (Frontiers in Microbiology, 2021)

Molecular target: T1, MotL (sfGFP-MotL) (Shewanella putrefaciens, UniProt A0ABX8XB40)
T1 construct: gene K3G22_17145
T1 sequence (A0ABX8XB40 1-144): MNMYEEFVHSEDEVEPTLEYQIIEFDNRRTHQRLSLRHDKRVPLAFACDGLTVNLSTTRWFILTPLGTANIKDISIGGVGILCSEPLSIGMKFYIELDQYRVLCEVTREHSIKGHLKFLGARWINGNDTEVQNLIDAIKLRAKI
Experiment: radioligand spot binding on nitrocellulose, phosphorimaging
Settings: labelled compound ([…]); […] protein, […] Tris-HCl, […] NaCl, […] MgCl2, […] min, RT; protein purified from strain co-producing phosphodiesterase PdeH

## Nc1nc2c(ncn2[C@@H]2O[C@@H]3COP(=O)(O)O[C@H]4[C@@H](O)[C@H](n5cnc6c(=O)[nH]c(N)nc65)O[C@@H]4COP(=O)(O)O[C@H]3[C@H]2O)c(=O)[nH]1 [c-di-GMP]
  radioligand spot binding on nitrocellulose, phosphorimaging: Produced under these conditions, robust c-di-GMP binding to MotL could be observed
